Laboratory results from patent publication US9346786B2, “Pyrrolidine compounds” (Hoffmann-La Roche Inc., priority 2009, dated 2016).

Each compound was assayed against recombinant human NK3 receptor (Homo sapiens (Human), UniProt P29371) (assay: biochemical). Conditions: [3H]SR142801, membranes of HEK293 cells transiently expressing recombinant human NK3 receptor; read-out: Data Ki (hNK-3 receptor affinity).
recombinant human NK3 receptor, sequence (P29371 whole entry): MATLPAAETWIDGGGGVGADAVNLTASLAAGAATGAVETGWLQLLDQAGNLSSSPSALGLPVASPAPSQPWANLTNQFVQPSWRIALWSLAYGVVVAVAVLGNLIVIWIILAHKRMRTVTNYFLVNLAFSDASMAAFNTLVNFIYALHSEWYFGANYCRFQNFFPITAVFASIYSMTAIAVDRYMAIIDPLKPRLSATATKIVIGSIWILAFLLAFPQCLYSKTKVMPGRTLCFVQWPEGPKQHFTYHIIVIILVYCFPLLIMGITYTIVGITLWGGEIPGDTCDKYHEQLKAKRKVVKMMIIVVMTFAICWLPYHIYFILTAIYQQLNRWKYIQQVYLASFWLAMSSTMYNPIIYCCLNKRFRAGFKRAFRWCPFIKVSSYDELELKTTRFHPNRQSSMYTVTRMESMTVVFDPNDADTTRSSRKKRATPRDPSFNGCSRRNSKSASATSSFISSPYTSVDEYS
Assay type: binding
Description: [^3H]SR142801 Competition Binding Assay
hNK3 receptor binding experiment were performed using [^3H]SR142801 (Catalog No. TRK1035, specific activity: 74.0 Ci/mmol, Amersham, GE Healthcare UK limited, Buckinghamshire, UK) and membrane isolated from HEK293 cells transiently expressing recombinant human NK3 receptor. After thawing, the membrane homogenates were centrifuged at 48,000×g for […] at 4° C., the pellets were resuspended in the 50 mM Tris-HCl, 4 mM MnCl2, 1 μM phosphoramidon, 0.1% BSA binding buffer at pH 7.4 to a final assay concentration of 5 μg protein/well. For inhibition experiments, membranes were incubated with [^3H]SR142801 at a concentration equal to KD value of radioligand and 10 concentrations of the inhibitory compound (0.0003-10 μM) (in a total reaction volume of 500 μl) for 75 min at room temperature (RT). At the end of the incubation, membranes were filtered onto unitfilter (96-well white microplate with bonded GF/C filter preincubated 1 h in 0.3% PEI+0.3% BSA, Packard BioScience, Meriden, Conn.) with a Filtermate 196 harvester (Packard BioScience) and washed 4 times with ice-cold 50 mM Tris-HCl, pH 7.4 buffer. Nonspecific binding was measured in the presence of 10 μM SB222200 for both radioligands. The radioactivity on the filter was counted (5 min) on a Packard Top-count microplate scintillation counter with quenching correction after addition of 45 μl of microscint 40 (Canberra Packard S.A., Zürich, Switzerland) and shaking for 1 h. Inhibition curves were fitted according to the Hill equation: y=100/(1+(x/IC50)^nH), where nH=slope factor using Excel-fit 4 software (Microsoft). IC50 values were derived from the inhibition curve and the affinity constant (Ki) values were calculated using the Cheng-Prussoff equation Ki=IC50/(1+[L]/KD) where [L] is the concentration of radioligand and KD is its dissociation constant at the receptor, derived from the saturation isotherm. All experiments were performed in duplicate and the mean±standard error (SEM) of the individual Ki values was calculated.
Work on `CCN(C(=O)Oc1ccc(F)cc1)[C@H]1CN(C(=O)C2CCN(c3ccc(C#N)cn3)CC2)C[C@@H]1c1ccc(Cl)cc1` [Example 22, [(3R,4S)-4-(4-Chloro-phenyl)-1-(5′-cyano-3,4,5,6-tetrahydro-2H-[1,2′]bipyridinyl-4-carbonyl)-pyrrolidin-3-yl]-ethyl-carbamic acid 4-fluoro-phenyl ester] yielded a Ki of 25 nM. Compound `CC(C)N(C(=O)Oc1ccc(F)cc1)[C@@H]1CN(C(=O)C2CCN(c3ccc(C#N)cn3)CC2)C[C@H]1c1ccc(Cl)cc1` [Example 23, [(3S,4R)-4-(4-Chloro-phenyl)-1-(5′-cyano-3,4,5,6-tetrahydro-2H-[1,2′]bipyridinyl-4-carbonyl)-pyrrolidin-3-yl]-isopropyl-carbamic acid 4-fluoro-phenyl ester] has a Ki of 21 nM. For `CC(=O)c1ccc(N2CCC(C(=O)N3C[C@@H](N(C(=O)Oc4ccc(F)cc4)C(C)C)[C@H](c4ccc(Cl)cc4)C3)CC2)nc1` [Example 24, [(3S,4R)-1-(5′-Acetyl-3,4,5,6-tetrahydro-2H-[1,2′]bipyridinyl-4-carbonyl)-4-(4-chloro-phenyl)-pyrrolidin-3-yl]-isopropyl-carbamic acid 4-fluoro-phenyl ester], the Ki was 62 nM. With `CC(C)N(C(=O)Oc1ccc(F)cc1)[C@@H]1CN(C(=O)C2CCN(c3ccc(C(F)(F)F)cn3)CC2)C[C@H]1c1ccc(Cl)cc1` [Example 25, [(3S,4R)-4-(4-Chloro-phenyl)-1-(5′-trifluoromethyl-3,4,5,6-tetrahydro-2H-[1,2′]bipyridinyl-4-carbonyl)-pyrrolidin-3-yl]-isopropyl-carbamic acid 4-fluoro-phenyl ester] the Ki was 112 nM. In the case of `CC(C)N(C(=O)Oc1ccc(F)cc1)[C@@H]1CN(C(=O)C2CCN(c3ccc(C#N)nn3)CC2)C[C@H]1c1ccc(Cl)cc1` [Example 26, {(3S,4R)-4-(4-Chloro-phenyl)-1-[1-(6-cyano-pyridazin-3-yl)-piperidine-4-carbonyl]-pyrrolidin-3-yl}-isopropyl-carbamic acid 4-fluoro-phenyl ester], the Ki is reported as 46 nM. Work on `CC(C)N(C(=O)Oc1ccc(F)cc1)[C@@H]1CN(C(=O)C2CCN(c3cnc(C#N)cn3)CC2)C[C@H]1c1ccc(Cl)cc1` [Example 27, {(3S,4R)-4-(4-Chloro-phenyl)-1-[1-(5-cyano-pyrazin-2-yl)-piperidine-4-carbonyl]-pyrrolidin-3-yl}-isopropyl-carbamic acid 4-fluoro-phenyl ester] yielded a Ki of 47 nM. `CC(C)N(C(=O)Oc1ccc(F)cc1)[C@H]1CN(C(=O)C2CCN(c3ccc(C#N)cn3)CC2)C[C@@H]1c1ccc(Cl)cc1` [Example 28, [(3R,4S)-4-(4-Chloro-phenyl)-1-(5′-cyano-3,4,5,6-tetrahydro-2H-[1,2′]bipyridinyl-4-carbonyl)-pyrrolidin-3-yl]-isopropyl-carbamic acid 4-fluoro-phenyl ester] was tested, and the Ki was 50 nM. With `N#Cc1ccc(N2CCC(C(=O)N3C[C@@H](N(C(=O)Oc4ccc(F)cc4)C4CC4)[C@H](c4ccc(Cl)cc4)C3)CC2)nc1` [Example 29, [(3S,4R)-4-(4-Chloro-phenyl)-1-(5′-cyano-3,4,5,6-tetrahydro-2H-[1,2′]bipyridinyl-4-carbonyl)-pyrrolidin-3-yl]-cyclopropyl-carbamic acid 4-fluoro-phenyl ester] the Ki was 12 nM. With `CC(=O)c1ccc(N2CCC(C(=O)N3C[C@@H](N(C(=O)Oc4ccc(F)cc4)C4CC4)[C@H](c4ccc(Cl)cc4)C3)CC2)nc1` [Example 30, [(3S,4R)-1-(5′-Acetyl-3,4,5,6-tetrahydro-2H-[1,2′]bipyridinyl-4-carbonyl)-4-(4-chloro-phenyl)-pyrrolidin-3-yl]-cyclopropyl-carbamic acid 4-fluoro-phenyl ester] the Ki was 35 nM. Compound `N#Cc1ccc(N2CCC(C(=O)N3C[C@H](c4ccc(Cl)cc4)[C@@H](N(C(=O)Oc4ccc(F)cc4)C4CC4)C3)CC2)nc1` [Example 34, [(3R,4S)-4-(4-Chloro-phenyl)-1-(5′-cyano-3,4,5,6-tetrahydro-2H-[1,2′]bipyridinyl-4-carbonyl)-pyrrolidin-3-yl]-cyclopropyl-carbamic acid 4-fluoro-phenyl ester] has a Ki of 116 nM. With `CCN(C(=O)Oc1ccc(F)cc1)[C@@H]1CN(C(=O)C2CCN(c3ccc(C#N)cn3)CC2)C[C@H]1c1ccc(F)cc1` [Example 35, [(3S,4R)-1-(5′-Cyano-3,4,5,6-tetrahydro-2H-[1,2′]bipyridinyl-4-carbonyl)-4-(4-fluoro-phenyl)-pyrrolidin-3-yl]-ethyl-carbamic acid 4-fluoro-phenyl ester] the Ki was 4 nM. `CCN(C(=O)Oc1ccc(F)cc1)[C@@H]1CN(C(=O)C2CCN(c3ccc(S(C)(=O)=O)cn3)CC2)C[C@H]1c1ccc(F)cc1` [Example 37, Ethyl-[(3S,4R)-4-(4-fluoro-phenyl)-1-(5′-methanesulfonyl-3,4,5,6-tetrahydro-2H-[1,2′]bipyridinyl-4-carbonyl)-pyrrolidin-3-yl]-carbamic acid 4-fluoro-phenyl ester] showed a Ki of 8 nM. In the case of `CCN(C(=O)Oc1ccc(F)cc1)[C@@H]1CN(C(=O)C2CCN(C(=O)OC(C)(C)C)CC2)C[C@H]1c1ccc(Cl)c(F)c1` [Example 39, 4-{(3R,4S)-3-(4-Chloro-3-fluoro-phenyl)-4-[ethyl-(4-fluoro-phenoxycarbonyl)-amino]-pyrrolidine-1-carbonyl}-piperidine-1-carboxylic acid tert-butyl ester], the Ki is reported as 4 nM. `CCN(C(=O)Oc1ccc(F)cc1)[C@@H]1CN(C(=O)C2CCN(c3ccc(C#N)cn3)CC2)C[C@H]1c1ccc(Cl)c(F)c1` [Example 40, [(3S,4R)-4-(4-Chloro-3-fluoro-phenyl)-1-(5′-cyano-3,4,5,6-tetrahydro-2H-[1,2′]bipyridinyl-4-carbonyl)-pyrrolidin-3-yl]-ethyl-carbamic acid 4-fluoro-phenyl ester] showed a Ki of 0.7 nM. Work on `CCN(C(=O)Oc1ccc(F)cc1)[C@@H]1CN(C(=O)C2CCN(c3ccc(Cl)cn3)CC2)C[C@H]1c1ccc(Cl)c(F)c1` [Example 41, [(3S,4R)-4-(4-Chloro-3-fluoro-phenyl)-1-(5′-chloro-3,4,5,6-tetrahydro-2H-[1,2′]bipyridinyl-4-carbonyl)-pyrrolidin-3-yl]-ethyl-carbamic acid 4-fluoro-phenyl ester] yielded a Ki of 0.6 nM. `CCN(C(=O)Oc1ccc(F)cc1)[C@@H]1CN(C(=O)C2CCN(c3ccc(C(F)(F)F)cn3)CC2)C[C@H]1c1ccc(Cl)c(F)c1` [Example 42, [(3S,4R)-4-(4-Chloro-3-fluoro-phenyl)-1-(5′-trifluoromethyl-3,4,5,6-tetrahydro-2H-[1,2′]bipyridinyl-4-carbonyl)-pyrrolidin-3-yl]-ethyl-carbamic acid 4-fluoro-phenyl ester] was tested, and the Ki was 2 nM.

Same assay, conditions: read-out: Data Ki (hNK-3 receptor affinity)
`O=C(C1CCN(c2ccc(C(F)(F)F)cn2)CC1)N1C[C@@H](N(C(=O)Oc2ccc(F)cc2)C2CC2)[C@H](c2ccc(Cl)cc2)C1` [Example 31, [(3S,4R)-4-(4-Chloro-phenyl)-1-(5′-trifluoromethyl-3,4,5,6-tetrahydro-2H-[1,2′]bipyridinyl-4-carbonyl)-pyrrolidin-3-yl]-cyclopropyl-carbamic acid 4-fluoro-phenyl ester] was tested, and the Ki was 57 nM. `N#Cc1ccc(N2CCC(C(=O)N3C[C@@H](N(C(=O)Oc4ccc(F)cc4)C4CC4)[C@H](c4ccc(Cl)cc4)C3)CC2)nn1` [Example 32, {(3S,4R)-4-(4-Chloro-phenyl)-1-[1-(6-cyano-pyridazin-3-yl)-piperidine-4-carbonyl]-pyrrolidin-3-yl}-cyclopropyl-carbamic acid 4-fluoro-phenyl ester] showed a Ki of 52 nM. In the case of `N#Cc1cnc(N2CCC(C(=O)N3C[C@@H](N(C(=O)Oc4ccc(F)cc4)C4CC4)[C@H](c4ccc(Cl)cc4)C3)CC2)cn1` [Example 33, {(3S,4R)-4-(4-Chloro-phenyl)-1-[1-(5-cyano-pyrazin-2-yl)-piperidine-4-carbonyl]-pyrrolidin-3-yl}-cyclopropyl-carbamic acid 4-fluoro-phenyl ester], the Ki is reported as 48 nM. Compound `CCN(C(=O)Oc1ccc(F)cc1)[C@@H]1CN(C(=O)C2CCN(c3ccc(Cl)cn3)CC2)C[C@H]1c1ccc(F)cc1` [Example 36, [(3S,4R)-1-(5′-Chloro-3,4,5,6-tetrahydro-2H-[1,2′]bipyridinyl-4-carbonyl)-4-(4-fluoro-phenyl)-pyrrolidin-3-yl]-ethyl-carbamic acid 4-fluoro-phenyl ester] has a Ki of 10 nM. Work on `CCN(C(=O)Oc1ccc(F)cc1)[C@@H]1CN(C(=O)C2CCN(c3ccc(C(C)=O)cn3)CC2)C[C@H]1c1ccc(F)cc1` [Example 38, [(3S,4R)-1-(5′-Acetyl-3,4,5,6-tetrahydro-2H-[1,2′]bipyridinyl-4-carbonyl)-4-(4-fluoro-phenyl)-pyrrolidin-3-yl]-ethyl-carbamic acid 4-fluoro-phenyl ester] yielded a Ki of 7 nM.
